From patent US20200131669A1, “CYCLIC PEPTIDE COMPOUND HAVING HIGH MEMBRANE PERMEABILITY, AND LIBRARY CONTAINING SAME” (Chugai Seiyaku Kabushiki Kaisha, priority 2017, published 2020)
Starred links: 1 amine or outer side, 2 acyl side, 3 side chain; linkers in the order of their positions; H or OH if unused. Positions of bridges follow the written chain, without caps; N, C: chain ends. Non-standard residues stand in square brackets, D forms with d. Residues, ends and D or L forms follow the SMILES beside them. *: point of attachment. X13 = O=C([C@@H]1C[C@H](N2CCC(F)(F)CC2)CN1[*:1])[*:2]; X4 = O=C([C@@H]1C[C@@H](N2CCC(F)(F)CC2)CN1[*:1])[*:2]; NMeAbu(4-morpholino) = CN[C@@H](CCN1CCOCC1)C(=O)O; Phe(4-CHF2) = N[C@@H](Cc1ccc(C(F)F)cc1)C(=O)O; NMePhe(3-Cl) = CN[C@@H](Cc1cccc(Cl)c1)C(=O)O; X12 = CCCC[C@@H](O)[C@H](N[*:1])C(=O)[*:2]; X15 = CN([C@H](CCN1CCOCC1)C(=O)[*:2])[*:1]; X8 = O=C(CN(CCN1CCC(F)(F)CC1)[*:1])[*:2]; X3 = O=C([C@H](CCCCO)N[*:1])[*:2]; NMeF = CN[C@@H](Cc1ccccc1)C(=O)O; NMeGABA = CN(CCCC(=O)[*:2])[*:1]; NMeI = CC[C@H](C)[C@H](NC)C(=O)O; NMeL = CN[C@@H](CC(C)C)C(=O)O; NMeV = CN[C@H](C(=O)O)C(C)C; NMeAbu = CC[C@H](NC)C(=O)O; NMeA = CN[C@@H](C)C(=O)O; Piperidide = C1CCN(*)CC1; dAbu = CC[C@@H](N)C(=O)O; NBuGly = CCCCNCC(=O)O; Sar = CNCC(=O)O; tBu = CC(C)(C)*

Assay: Caco-2 membrane permeability, improved method as used in the following Examples (96-well, 20 to 24 h preincubation)
Assay type: in vitro ADME
Settings: human, Caco-2, Caco-2
Summary of the method: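 Papp (cm/sec) was derived from LC/MS of basal samples collected 180 min after apical dosing in FaSSIF/HBSS pH 6.0 with 1% DMSO, against a basal HBSS pH 7.4 receiver containing 4% BSA. Three-week Caco-2 cultures were first preincubated with compound in DMEM+FaSSIF at 37 °C for 20–24 h.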

Compared with CC(C)C[C@@H]1NC(=O)[C@H](C)N(C)C(=O)C[C@@H](C(=O)N2CCCCC2)NC(=O)[C@H](CC(C)C)N(C)C(=O)CN(C)C(=O)[C@H](CCCCO)NC(=O)[C@H](CC(C)C)N(C)C(=O)[C@H](Cc2ccccc2)N(C)C(=O)[C@H](CC(C)C)NC(=O)[C@H](Cc2ccccc2)N(C)C(=O)[C@H](CC(C)C)N(C)C1=O [pd451] ([NMeA]L[NMeL][NMeF]L[NMeF][NMeL][X3][Sar][NMeL]D-Piperidide; lactam N-11), CCCCN1CC(=O)N(C)[C@H](CCN2CCOCC2)C(=O)N[C@H](C(=O)N2CCCCC2)CC(=O)N(C)[C@@H](C)C(=O)N[C@@H](CC(C)C)C(=O)N(C)[C@@H](CC(C)C)C(=O)N(C)[C@@H](Cc2ccccc2)C(=O)N[C@@H](CC(C)C)C(=O)N(C)[C@@H](Cc2ccccc2)C(=O)N(C)[C@@H](CC(C)C)C(=O)N[C@@H]([C@@H](C)O)C1=O [pd454] ([NMeA]L[NMeL][NMeF]L[NMeF][NMeL]T[NBuGly][X15]D-Piperidide; lactam N-11) is 3.4-fold lower in Papp A→B at 180 min: 4.1 ×10⁻⁶ cm/s for the first, 1.2 ×10⁻⁶ cm/s for the second.

First: CCCCN1CC(=O)N(C)[C@@H](CC(C)C)C(=O)N[C@@H](COC(C)(C)C)C(=O)N(C)[C@@H](Cc2ccccc2)C(=O)N(C)[C@@H](C(C)C)C(=O)N[C@H](C(=O)N2CCCCC2)CC(=O)N[C@H](CC(C)C)C(=O)N(C)[C@@H](Cc2ccccc2)C(=O)N[C@@H](CC(C)C)C(=O)N(C)[C@@H](CCN2CCOCC2)C(=O)N[C@@H]([C@@H](C)O)C1=O [pd452] ([dL][NMeF]L[NMeAbu(4-morpholino)]T[NBuGly][NMeL]S(tBu)[NMeF][NMeV]D-Piperidide; lactam N-11)
Second: CCCCN1CC(=O)N(C)[C@@H](C(C)C)C(=O)N[C@H](C(=O)N2CCCCC2)CC(=O)N(C)[C@@H](C)C(=O)N[C@@H](CC(C)C)C(=O)N(C)[C@@H](CC(C)C)C(=O)N(C)[C@@H](Cc2ccccc2)C(=O)N[C@@H](CC(C)C)C(=O)N(C)[C@@H](Cc2ccccc2)C(=O)N(C)[C@@H](CCN2CCOCC2)C(=O)N[C@@H]([C@@H](C)O)C1=O [pd453] ([NMeA]L[NMeL][NMeF]L[NMeF][NMeAbu(4-morpholino)]T[NBuGly][NMeV]D-Piperidide; lactam N-11)
The Papp A→B at 180 min of the first is 1.8-fold lower: 1.3 ×10⁻⁶ cm/s for the first, 2.3 ×10⁻⁶ cm/s for the second.

Going from CC(C)C[C@@H]1NC(=O)[C@H](Cc2ccccc2)N(C)C(=O)[C@H](CC(C)C)N(C)C(=O)[C@H](CC(C)C)NC(=O)[C@H](C)N(C)C(=O)C[C@@H](C(=O)N2CCCCC2)NC(=O)[C@H](CC(C)C)N(C)C(=O)CN(C)C(=O)[C@H]([C@@H](C)O)NC(=O)CN(CCN2CCC(F)(F)CC2)C(=O)[C@H](Cc2ccccc2)N(C)C1=O [pd456] ([NMeA]L[NMeL][NMeF]L[NMeF][X8]T[Sar][NMeL]D-Piperidide; lactam N-11) to CCCC[C@@H](O)[C@@H]1NC(=O)[C@H](CC(C)C)N(C)C(=O)[C@H](Cc2ccccc2)N(C)C(=O)[C@H](C)NC(=O)[C@H](Cc2ccccc2)N(C)C(=O)[C@H](CC(C)C)N(C)C(=O)[C@H](C(C)C)NC(=O)[C@H](C)N(C)C(=O)C[C@@H](C(=O)N2CCCCC2)NC(=O)[C@H](CC(C)C)N(C)C(=O)CN(C)C1=O [pd469] ([NMeA]V[NMeL][NMeF]A[NMeF][NMeL][X12][Sar][NMeL]D-Piperidide; lactam N-11), the Papp A→B at 180 min falls from 5 ×10⁻⁶ cm/s to 2.5 ×10⁻⁶ cm/s (2-fold).

CC(C)C[C@H]1C(=O)N[C@@H](COC(C)(C)C)C(=O)N(C)[C@@H](Cc2ccccc2)C(=O)N(C)[C@@H](CC(C)C)C(=O)N[C@H](C(=O)N2CCCCC2)CC(=O)N2C[C@H](N3CCC(F)(F)CC3)C[C@H]2C(=O)N(C)[C@@H](Cc2cccc(Cl)c2)C(=O)N[C@@H](C(C)C)C(=O)N(C)[C@@H](C(C)C)C(=O)N[C@@H]([C@@H](C)O)C(=O)N(C)CC(=O)N1C [pd458] ([X4][NMePhe(3-Cl)]V[NMeV]T[Sar][NMeL]S(tBu)[NMeF][NMeL]D-Piperidide; lactam N-11) and CC(C)C[C@H]1C(=O)N[C@@H](COC(C)(C)C)C(=O)N(C)[C@@H](Cc2ccccc2)C(=O)N(C)[C@@H](CC(C)C)C(=O)N[C@H](C(=O)N2CCCCC2)CC(=O)N2C[C@@H](N3CCC(F)(F)CC3)C[C@H]2C(=O)N(C)[C@@H](Cc2cccc(Cl)c2)C(=O)N[C@@H](C(C)C)C(=O)N(C)[C@@H](C(C)C)C(=O)N[C@@H]([C@@H](C)O)C(=O)N(C)CC(=O)N1C [pd461] ([X13][NMePhe(3-Cl)]V[NMeV]T[Sar][NMeL]S(tBu)[NMeF][NMeL]D-Piperidide; lactam N-11) are within 1.5-fold of each other in Papp A→B at 180 min: 1.2 ×10⁻⁶ cm/s for the first, 1.4 ×10⁻⁶ cm/s for the second.

CC[C@H]1NC(=O)C[C@@H](C(=O)N2CCCCC2)NC(=O)[C@H](CC(C)C)N(C)C(=O)[C@H](Cc2ccccc2)NC(=O)[C@@H]2C[C@@H](N3CCC(F)(F)CC3)CN2C(=O)[C@H]([C@@H](C)O)NC(=O)[C@H](CC(C)C)N(C)C(=O)[C@H](CC(C)C)NC(=O)[C@H](CC(C)C)N(C)C(=O)[C@H](COC(C)(C)C)NC(=O)[C@H](CC(C)C)N(C)C1=O [pd459] ([dAbu][NMeL]S(tBu)[NMeL]L[NMeL]T[X4]F[NMeL]D-Piperidide; lactam N-11) and CC(C)C[C@H]1C(=O)N(C)[C@@H](CC(C)C)C(=O)N(C)[C@@H](CC(C)C)C(=O)N(C)[C@@H](Cc2ccccc2)C(=O)N[C@@H]([C@@H](C)O)C(=O)N(C)[C@@H](Cc2ccccc2)C(=O)N(C)[C@@H](CC(C)C)C(=O)N2C[C@H](N3CCC(F)(F)CC3)C[C@H]2C(=O)N[C@H](C(=O)N2CCCCC2)CC(=O)N[C@@H](C(C)C)C(=O)NCC(=O)N1C [pd460] (VG[NMeL][NMeL][NMeL][NMeF]T[NMeF][NMeL][X4]D-Piperidide; lactam N-11) are within 1.5-fold of each other in Papp A→B at 180 min: 1.6 ×10⁻⁶ cm/s for the first, 1.2 ×10⁻⁶ cm/s for the second.

Going from CCCC[C@@H](O)[C@@H]1NC(=O)[C@H](CC(C)C)N(C)C(=O)[C@H](C)NC(=O)[C@H](Cc2ccccc2)N(C)C(=O)[C@@H](C(C)C)NC(=O)C[C@@H](C(=O)N2CCCCC2)NC(=O)[C@H](C)N(C)C(=O)[C@H](Cc2ccccc2)N(C)C(=O)[C@H](COC(C)(C)C)NC(=O)[C@H](CC(C)C)N(C)C(=O)CN(C)C1=O [pd467] ([dV][NMeF]A[NMeL][X12][Sar][NMeL]S(tBu)[NMeF][NMeA]D-Piperidide; lactam N-11) to CC(=O)NCCCC[C@@H]1NC(=O)[C@H](CC(C)C)N(C)C(=O)[C@H](CC(C)C)NC(=O)[C@H](Cc2ccccc2)N(C)C(=O)[C@@H](C(C)C)NC(=O)C[C@@H](C(=O)N2CCCCC2)NC(=O)[C@H](C(C)C)N(C)C(=O)[C@H](Cc2ccccc2)N(C)C(=O)[C@H](COC(C)(C)C)NC(=O)[C@H](CC(C)C)N(C)C(=O)CN(C)C1=O [pd470] ([dV][NMeF]L[NMeL]K(Ac)[Sar][NMeL]S(tBu)[NMeF][NMeV]D-Piperidide; lactam N-11), the Papp A→B at 180 min rises from 1.4 ×10⁻⁶ cm/s to 2.1 ×10⁻⁶ cm/s (1.5-fold).

Going from CCCC[C@@H](O)[C@@H]1NC(=O)[C@H](Cc2ccccc2)N(C)C(=O)[C@H](Cc2ccccc2)N(C)C(=O)[C@H]([C@@H](C)CC)NC(=O)[C@H](CC(C)C)N(C)C(=O)CCCN(C)C(=O)C[C@@H](C(=O)N2CCCCC2)NC(=O)[C@H](CC(C)C)N(C)C(=O)[C@H](C)N(C)C(=O)[C@H]([C@@H](C)O)NC(=O)[C@H](CC(C)C)N(C)C1=O [pd468] ([NMeGABA][NMeL]I[NMeF][NMeF][X12][NMeL]T[NMeA][NMeL]D-Piperidide; lactam N-11) to CC(=O)NCCCC[C@@H]1NC(=O)[C@H](CC(C)C)N(C)C(=O)[C@H](CC(C)C)NC(=O)[C@H](Cc2ccccc2)N(C)C(=O)[C@@H](CC(C)C)NC(=O)C[C@@H](C(=O)N2CCCCC2)NC(=O)[C@H](C(C)C)N(C)C(=O)[C@H](Cc2ccccc2)N(C)C(=O)[C@H](COC(C)(C)C)NC(=O)[C@H](CC(C)C)N(C)C(=O)CN(C)C1=O [pd471] ([dL][NMeF]L[NMeL]K(Ac)[Sar][NMeL]S(tBu)[NMeF][NMeV]D-Piperidide; lactam N-11), the Papp A→B at 180 min rises from 1 ×10⁻⁶ cm/s to 2.1 ×10⁻⁶ cm/s (2.1-fold).

CC(C)C[C@@H]1NC(=O)[C@H](C)N(C)C(=O)C[C@@H](C(=O)N2CCCCC2)NC(=O)[C@H](CC(C)C)N(C)C(=O)CN(C)C(=O)[C@H]([C@@H](C)O)NC(=O)[C@H](C(C)C)N(C)C(=O)[C@H](CC(C)C)N(C)C(=O)[C@H](Cc2ccc(C(F)F)cc2)NC(=O)[C@H](CC(C)C)N(C)C(=O)[C@H](CC(C)C)N(C)C1=O [pd474] ([NMeA]L[NMeL][NMeL][Phe(4-CHF2)][NMeL][NMeV]T[Sar][NMeL]D-Piperidide; lactam N-11) showed a Papp A→B at 180 min of 4.5 ×10⁻⁶ cm/s.

Same assay, conditions: human; Papp, Caco-2 membrane permeability, improved method; read-out: Caco-2

First: CNC(=O)CC[C@@H]1NC(=O)[C@H](CC(C)C)N(C)C(=O)[C@H](C(C)C)N(C)C(=O)[C@H](Cc2ccccc2)NC(=O)[C@H](Cc2ccccc2)N(C)C(=O)[C@H](CC(C)C)N(C)C(=O)[C@H](CC(C)C)NC(=O)[C@H](CC(C)C)N(C)C(=O)C[C@@H](C(=O)N2CCCCC2)NC(=O)[C@H](CC(C)C)N(C)C(=O)CN(C)C1=O [pd463] ([NMeL]L[NMeL][NMeF]F[NMeV][NMeL]E(NHMe)[Sar][NMeL]D-Piperidide; lactam N-11)
Second: CC[C@H](C)[C@H]1C(=O)N[C@@H]([C@@H](C)O)C(=O)N(C)CC(=O)N(C)[C@@H](CC)C(=O)N[C@H](C(=O)N2CCCCC2)CC(=O)N(C)[C@@H](C)C(=O)N[C@@H](Cc2ccc(C(F)F)cc2)C(=O)N(C)[C@@H](CC(C)C)C(=O)N(C)[C@@H](Cc2ccccc2)C(=O)N[C@@H](CC(C)C)C(=O)N(C)[C@@H](CC(C)C)C(=O)N1C [pd473] ([NMeA][Phe(4-CHF2)][NMeL][NMeF]L[NMeL][NMeI]T[Sar][NMeAbu]D-Piperidide; lactam N-11)
The Papp A→B at 180 min of the first is 3.8-fold lower: 1.2 ×10⁻⁶ cm/s for the first, 4.5 ×10⁻⁶ cm/s for the second.
